tested on: P. falciparum 3D7 growth, pLDH absorbance; experiment: blood-stage malaria parasite growth potency – strain 3D7, dose response (AID 2305)

Row | SMILES | IC50 [nM]
1 | COc1cccc(C=NNc2cc(C)nc3ccccc23)c1 | 940
2 | Fc1ccc2nc(-c3cccc(-c4ccc(CN5CCCCC5)cc4)c3)[nH]c2c1 | 160
3 | Cc1nn(-c2ccccc2)c2sc(C(=O)N(CCCN(C)C)c3nc(-c4ccccc4)cs3)cc12 | 980
4 | CCCCCCNC(=O)C1Cc2c([nH]c3ccc(Br)cc23)C2(CCN(CCc3ccccc3)CC2)N1 (stereo not given) | 790
5 | CC(=O)Nc1ccc(CN2CCC(NC(=O)c3cc(-c4ccc(N(C)C)cc4)cs3)C2)cc1 (stereo not given) | 1170
6 | COc1cccc(C(=O)Nc2ccc(Nc3nc(C)cc(N4CCCCC4)n3)cc2)c1OC | 1020
7 | CCCCCCCCCN1CC[C@@H](CCCc2ccnc3ccc(O)cc23)[C@@H](CC)C1 | 290
8 | COc1ccc2nccc([C@@H](O)CN3CCC(NCc4cc5ccccc5o4)CC3)c2c1 | 660
9 | Cc1cccc2[nH]c(-c3ccc(-c4ccc(CN5CC(C)OC(C)C5)cc4)cc3)nc12 (stereo not given) | 520
10 | c1cc(CNc2ncc(-c3ccsc3)c(-c3nccs3)n2)ccn1 | 360
11 | Cc1ccc(C(=O)NC2C(=O)NC2c2ccccc2)c(C)c1 (stereo not given) | 950
12 | Cc1ccc(Nc2nc(C)cc(NC3CCN(C)CC3)n2)cc1 | 500
13 | CN1CCN(Cc2ccc(-c3ccc4c(Nc5cc(O)c(F)cc5Cl)ccnc4c3)o2)CC1 | 130
14 | CSc1nnc2n(Cc3ccccc3)c(=O)c3c(n12)-c1ccccc1CC31CCCCC1 | 970
15 | CS(=O)(=O)CCNCc1ccc(-c2ccc3ncnc(Nc4ccc(OCc5ccccc5)c(Cl)c4)c3c2)o1 | 560
16 | COc1ccc(-c2cccc(NC(=O)c3cccc(Cl)c3)c2)cc1CN1CCC(O)CC1 | 790
17 | CCCCNc1nc(NCCCC)c2c(C)c(Cc3ccccc3)c(NCCCC)nc2n1 | 890
18 | Cc1cc(NN=Cc2ccc(Cl)cc2)c2cccc(C)c2n1 | 720
19 | COc1ccc2nccc(NCC3(O)CCC(NCc4ccc5c(n4)NC(=O)CS5)CC3)c2n1 (stereo not given) | 690
20 | CCCCCc1cc(O)c2c(c1)OC(C)(C)CC2C1=CCN(Cc2cnc3ccccc3c2)CC1 (stereo not given) | 280
21 | O=C(NCC(NCCCNc1cc(=O)c2ccccc2[nH]1)c1cc(Br)cc(Br)c1)C1=CCCC1 (stereo not given) | 900
22 | CC(=O)Nc1ccc(NC(=O)c2cc(-c3cc(Cl)ccc3O)n[nH]2)cc1 | 180
23 | CCCc1cc(Cc2cnc(N)nc2N)cc(CCC)c1OCCCCC(=O)OC | 40
24 | c1ccc(CCNc2ccnc(Nc3ccc4cn[nH]c4c3)n2)cc1 | 470
25 | Cc1cccc2[nH]c(-c3ccc(-c4cccc(NC(=O)c5cccc(C(N)=O)c5)c4)cc3)nc12 | 1130

Row | SMILES | IC50 [nM]
26 | O=C(Nc1cccc(-c2cccc(-c3nc4ccc(C(F)(F)F)cc4[nH]3)c2)c1)c1cnc[nH]1 | 210
27 | COc1ccc(C=Cc2cc(N)c3ccccc3n2)cc1Br | 710
28 | O=C(Cn1c(CCc2cccc(F)c2F)cc(=O)c2ccccc21)N(CCN1CCCCC1)Cc1ccc(-c2ccc(C(F)(F)F)cc2)cc1 | 760
29 | COc1ccc(OCCON)cc1 | 200
30 | O=C(NCc1cccc2ccccc12)C1CCCN(C(=O)c2ccc(O)c(-c3ccc(Cl)c(Cl)c3)c2)C1 (stereo not given) | 1030
31 | CCOc1cc(Br)c(C(C)NC(=O)c2ccccc2)cc1OCC (stereo not given) | 860
32 | CNC(=O)c1ccccc1Nc1cc(Nc2cc(OC)ccn2)ncc1Cl | 930
33 | Cc1ccc(NC(=O)NC2CCN(c3ccnc4ccccc34)C2)cc1 (stereo not given) | 710
34 | CCOc1ccccc1CNc1nccc(NCc2ccc(Cl)cc2Cl)n1 | 1100
35 | CC1(C)CCC(=Cc2ccc(Cl)cc2)CC1(O)Cn1ccnc1 (stereo not given) | 740
36 | FC(F)(F)c1ccc2nc(-c3cccc(-c4cccc(CNCc5cnn(-c6ccccc6)n5)c4)c3)[nH]c2c1 | 550
37 | CCN(CC)CCN(Cc1ccc(-c2ccc(C(F)(F)F)cc2)cc1)C(=O)Cn1c(CCc2c(F)cccc2F)nc(=O)c2ccccc21 | 640
38 | N#Cc1cc([N+](=O)[O-])ccc1-n1nc(C(N)=O)n(Cc2cccc(F)c2)c1=S | 720
39 | O=C(Nc1ccc(Cl)c(Cl)c1)N1CCC(CN2CCC(c3c[nH]c4ccccc34)CC2)CC1 | 290
40 | CN1CCN(Cc2cccc(-c3ccc4c(Nc5ccc(Oc6cccnc6)cc5)ccnc4c3)c2)CC1 | 190
41 | NC1=NC2(CCCCC2)N(OCCCCCCC2CCCCC2)C(N)=N1 | 360
42 | N#Cc1cncc(-c2nc3c(N4CCN(c5cnccn5)CC4)cccc3n2CCNCc2ccccc2)c1 | 910
43 | O=c1cc(NCCCNC2CCc3c(Cl)cc(Cl)cc32)[nH]c2ccccc12 (stereo not given) | 930
44 | O=C(CCCCCNC(=O)c1ccc(O)c(-c2ccc(Cl)c(Cl)c2)c1)NCc1cccc2ccccc12 | 760
45 | COc1ccc(CNCCc2cccs2)cc1-c1cccc(S(=O)(=O)NCCN2CCCC2)c1 | 880
46 | CCN(CC)CCCN(C(=O)Nc1ccc(C#N)cc1)c1nc(-c2ccc(F)cc2)cs1 | 650
47 | O=C(Nc1ccc(-c2cccc(-c3nc4ccc(C(F)(F)F)cc4[nH]3)c2)cc1)Nc1ccc(Cl)c(Cl)c1 | 750
48 | COc1cccc(C(=O)Nc2nc3c(s2)CCN(Cc2ccccc2N2CCNCC2)CC3)c1 | 890
49 | CS(=O)(=O)n1c(CN2CCN(c3ncc(C(F)(F)F)cc3Cl)CC2)nc2ccccc21 | 1060
50 | Cc1sc2ncnc(Sc3nc4ccccc4[nH]3)c2c1C | 260

From PubChem BioAssay AID2305 (GlaxoSmithKline (GSK), 2010)
